Test results published in publication PMC6155603, “Synthesis and Preliminary Biological Evaluation of Indol-3-yl-oxoacetamides as Potent Cannabinoid Receptor Type 2 Ligands” (Molecules : A Journal of Synthetic Chemistry and Natural …, 2017).

Experiments:
human CB2 = target: T1, human CB2 (Homo sapiens, UniProt P34972); assay: radioligand inhibition binding assay, [^3H]WIN55.212-2, membranes of CHO cells stably transfected with human CB2
T1 construct: host or cells: CHO cells (stably transfected), membrane homogenates
Description: Non-specific binding was determined using 10 µM WIN55.212-2. The individual IC50 values were determined by non-linear curve fitting using GraphPad Prism software (version 3.0, GraphPhad, San Diego, CA, USA), and the corresponding Ki values calculated using the Cheng–Prusoff equation [44]. […] Additionally, the binding affinities towards the CB1 receptor were investigated for compounds 6 and 8 by using [^3H]CP55.40 as competitive radioligand.

CB2 = conditions: reported value of lead molecule; cited from earlier work
CB1 = conditions: reported value of lead molecule; cited from earlier work
human CB1 receptors = human CB1 receptors (Homo sapiens, UniProt P21554); assay: CB1 binding assay with [^3H]CP55.40 as competitive radioligand; conditions: no displacement of radioligand up to this concentration
Description: Non-specific binding was determined using 10 µM WIN55.212-2. The individual IC50 values were determined by non-linear curve fitting using GraphPad Prism software (version 3.0, GraphPhad, San Diego, CA, USA), and the corresponding Ki values calculated using the Cheng–Prusoff equation [44]. […] Additionally, the binding affinities towards the CB1 receptor were investigated for compounds 6 and 8 by using [^3H]CP55.40 as competitive radioligand. None of the two derivatives could displace [^3H]CP55.40 from the human CB1 receptors up to a concentration of 100 µM. Thus, within this series of fluoro-substituted compounds, the N-alkyl chain of compound 8 is most suitable to obtain high affinity binding at the CB2 receptor, combined with an excellent selectivity against the CB1 receptor subtype.

T1 sequence (P34972 whole entry): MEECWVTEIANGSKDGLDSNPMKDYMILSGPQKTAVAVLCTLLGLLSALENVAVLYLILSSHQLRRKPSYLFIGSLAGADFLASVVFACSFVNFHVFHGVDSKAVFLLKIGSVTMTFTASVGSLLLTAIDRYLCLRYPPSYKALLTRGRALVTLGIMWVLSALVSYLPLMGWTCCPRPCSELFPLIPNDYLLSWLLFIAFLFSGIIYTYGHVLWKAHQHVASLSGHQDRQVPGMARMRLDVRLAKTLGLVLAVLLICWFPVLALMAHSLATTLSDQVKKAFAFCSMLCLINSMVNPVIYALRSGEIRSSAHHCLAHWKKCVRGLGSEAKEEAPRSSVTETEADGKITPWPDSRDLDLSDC
Chain of human CB1 receptors (P21554 whole entry): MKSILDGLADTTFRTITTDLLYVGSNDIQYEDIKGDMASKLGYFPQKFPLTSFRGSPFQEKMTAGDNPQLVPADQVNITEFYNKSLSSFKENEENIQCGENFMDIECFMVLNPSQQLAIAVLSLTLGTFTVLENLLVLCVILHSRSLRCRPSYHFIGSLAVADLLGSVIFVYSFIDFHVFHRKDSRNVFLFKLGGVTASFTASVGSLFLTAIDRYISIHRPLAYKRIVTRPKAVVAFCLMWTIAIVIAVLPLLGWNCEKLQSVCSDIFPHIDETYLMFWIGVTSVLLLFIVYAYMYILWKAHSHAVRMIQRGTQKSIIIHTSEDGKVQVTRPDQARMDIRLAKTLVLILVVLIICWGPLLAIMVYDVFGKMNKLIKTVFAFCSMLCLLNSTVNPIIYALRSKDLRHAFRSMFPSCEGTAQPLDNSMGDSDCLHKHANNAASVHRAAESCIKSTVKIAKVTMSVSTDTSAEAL

| SMILES | Ki (human CB2) | Ki (CB2) | Ki (CB1) | concentration up to which [^3H]CP55.40 was not displaced from human CB1 receptors (human CB1 receptors) |
| --- | --- | --- | --- | --- |
| CCCCCn1cc(C(=O)C(=O)NC23CC4CC(CC(C4)C2)C3)c2cc(-c3ccco3)ccc21 [compound 5, N-(Adamantan-1-yl)-2-(5-(furan-2-yl)-1-pentyl-1H-indol-3-yl)-2-oxoacetamide] | 0.0085 µM | 0.00037 µM | 0.345 µM | – |
| O=C(NC12CC3CC(CC(C3)C1)C2)C(=O)c1cn(CCOCCOCCF)c2ccc(-c3ccco3)cc12 [compound 6, N-(Adamantan-1-yl)-2-(1-(2-(2-(2-fluoroethoxy)ethoxy)ethyl)-5-(furan-2-yl)-1H-indol-3-yl)-2-oxoacetamide] | 0.0273 µM | – | – | > 100 µM |
| COCCn1cc(C(=O)C(=O)NC23CC4CC(CC(C4)C2)C3)c2cc(-c3ccco3)ccc21 [compound 7, N-(Adamantan-1-yl)-2-(5-(furan-2-yl)-1-(2-methoxyethyl)-1H-indol-3-yl)-2-oxoacetamide] | 0.0161 µM | – | – | – |
| O=C(NC12CC3CC(CC(C3)C1)C2)C(=O)c1cn(CCOCCF)c2ccc(-c3ccco3)cc12 [compound 8, N-(Adamantan-1-yl)-2-(1-(2-(2-fluoroethoxy)ethyl)-5-(furan-2-yl)-1H-indol-3-yl)-2-oxoacetamide] | 0.0062 µM | – | – | > 100 µM |
